Reference: ChEMBL document CHEMBL4739716, “Gpr139 receptor modulators” (2020)

What was measured:
[1] = target: T1, Probable G-protein coupled receptor 139 (Homo sapiens, UniProt Q6DWJ6); test: Agonist activity at human GPR139 expressed in CHO-K1 cells assessed as increase in calcium flux by calcium 5 dye based FLIPR assay; assay type: functional, cell-based
T1 sequence (Q6DWJ6 whole entry): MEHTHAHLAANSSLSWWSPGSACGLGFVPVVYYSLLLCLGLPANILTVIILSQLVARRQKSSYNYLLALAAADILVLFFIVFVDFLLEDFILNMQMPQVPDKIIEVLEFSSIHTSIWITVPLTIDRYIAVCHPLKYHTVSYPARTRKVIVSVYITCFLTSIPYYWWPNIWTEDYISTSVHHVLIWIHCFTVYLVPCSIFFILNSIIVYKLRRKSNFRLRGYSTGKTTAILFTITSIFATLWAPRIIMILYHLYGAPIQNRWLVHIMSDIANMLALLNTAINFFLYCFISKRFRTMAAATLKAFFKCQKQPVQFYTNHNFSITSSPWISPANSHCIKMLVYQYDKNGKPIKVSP

[2] = target: T2, Probable G-protein coupled receptor 139 (Rattus norvegicus, UniProt P0C0W8); test: Agonist activity at rat GPR139 expressed in CHO-K1 cells assessed as increase in calcium flux by calcium 5 dye based FLIPR assay; assay type: cell-based
T2 sequence (P0C0W8 whole entry): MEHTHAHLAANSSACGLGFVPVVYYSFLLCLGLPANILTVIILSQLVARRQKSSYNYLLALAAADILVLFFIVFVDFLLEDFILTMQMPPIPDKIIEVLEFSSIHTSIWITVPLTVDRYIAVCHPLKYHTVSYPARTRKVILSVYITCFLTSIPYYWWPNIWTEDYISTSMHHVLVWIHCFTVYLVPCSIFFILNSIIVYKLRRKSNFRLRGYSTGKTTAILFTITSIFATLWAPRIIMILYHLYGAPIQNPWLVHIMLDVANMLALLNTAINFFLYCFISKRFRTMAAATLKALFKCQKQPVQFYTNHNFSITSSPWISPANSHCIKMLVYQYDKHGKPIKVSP

[3] = target: T1, Probable G-protein coupled receptor 139; test: Agonist activity at human GPR139 expressed in CHO-K1 cells assessed as induction of beta-arrestin 2 recruitment incubated for 90 mins by PathHunter assay; assay type: cell-based
[4] = target: T3, Probable G-protein coupled receptor 139 (Homo sapiens) (UniProt Q6DWJ6); test: Agonist activity at human GPR139 expressed in CHO-K1 cells assessed as increase in calcium flux by calcium 5 dye based FLIPR assay relative to JNJ63533054; assay type: functional, cell-based
T3 sequence (whole entry): T1 sequence (Q6DWJ6 whole entry)

[5] = target: T3, Probable G-protein coupled receptor 139 (Homo sapiens); test: Agonist activity at human GPR139 expressed in CHO-K1 cells assessed as induction of beta-arrestin 2 recruitment incubated for 90 mins by PathHunter assay relative to JNJ63533054; assay type: cell-based
[6] = target: T4, Probable G-protein coupled receptor 139 (Rattus norvegicus) (UniProt P0C0W8); test: Agonist activity at rat GPR139 expressed in CHO-K1 cells assessed as increase in calcium flux by calcium 5 dye based FLIPR assay relative to JNJ63533054; assay type: cell-based
T4 sequence (whole entry): T2 sequence (P0C0W8 whole entry)

SMILES	EC50 ([1]; cho-k1) [nM]	EC50 ([2]; cho-k1) [nM]	Emax ([4]; filed as agonist) [%]	Emax ([6]; filed as agonist) [%]	further results
CC(C(=O)N[C@@H](C)c1ccc(Cl)c(F)c1)n1nc2cccnn2c1=O (stereo in doubt; I-6-2) [listing 1 of 2 here]	1	1	–	–	EC50 ([3]; cho-k1): 10 nM
Cc1ccc([C@H](C)NC(=O)C(C)n2nc3ccccn3c2=O)cc1 (stereo in doubt; form 2) [listing 1 of 2 here]	–	–	–	–	EC50 [2]: < 1 nM; EC50 [3]: ≥ 100 nM
CC(C(=O)N[C@@H](C)c1ccc(Cl)c(F)c1)n1nc2ccccn2c1=O (stereo in doubt; form 1) [listing 1 of 2 here]	–	–	> 80	50	Emax ([5]; filed as agonist): > 80%
CC(C(=O)N[C@@H](C)c1ccc(Cl)c(F)c1)n1nc2ncccn2c1=O (stereo in doubt; form 1) [listing 1 of 2 here]	1	10	–	–	EC50 [3]: ≥ 100 nM
CC(C(=O)N[C@@H](C)c1ccc(Cl)c(F)c1)n1nc2ncccn2c1=O (stereo in doubt; form 1) [listing 2 of 2 here]	–	–	> 80	50	Emax ([5]; filed as agonist): 50%
CC(C(=O)N[C@@H](C)c1ccc(Cl)c(F)c1)n1nc2ncccn2c1=O (stereo in doubt; form 2) [listing 1 of 2 here]	–	–	> 80	–	Emax [6]: 25%; Emax ([5]; filed as agonist): 50%
CNc1ccnn2c(=O)n(CC(=O)N[C@@H](C)c3ccc(Cl)c(F)c3)nc12	–	–	> 80	–	EC50 [1]: < 1 nM; EC50 ([3]; cho-k1): 1 nM; Emax ([5]; filed as agonist): > 80%
COc1ccnn2c(=O)n(CC(=O)N[C@@H](C)c3ccc(Cl)c(F)c3)nc12	–	–	> 80	–	EC50 [1]: < 1 nM; EC50 ([3]; cho-k1): 1 nM; Emax ([5]; filed as agonist): > 80%
Cc1ccc([C@H](C)NC(=O)C(C)n2nc3ccccn3c2=O)cc1 (stereo in doubt; form 2) [listing 2 of 2 here]	–	–	> 80	> 80	Emax ([5]; filed as agonist): > 80%
C[C@H](NC(=O)Cn1nc2cnccn2c1=O)c1ccc(Cl)c(F)c1	1	1	> 80	> 80	–
Cc1ccc([C@H](C)NC(=O)C(C)n2nc3ccccn3c2=O)cc1 (stereo in doubt; form 3)	–	–	> 80	–	Emax [6]: 25%; Emax ([5]; filed as agonist): 50%
CC(C(=O)N[C@@H](C)c1ccc(Cl)c(F)c1)n1nc2cccnn2c1=O (stereo in doubt; I-6-1) [listing 1 of 2 here]	–	–	> 80	50	Emax [5]: 25%
CC(C(=O)N[C@@H](C)c1ccc(Cl)c(F)c1)n1nc2cccnn2c1=O (stereo in doubt; I-6-2) [listing 2 of 2 here]	–	–	> 80	> 80	Emax ([5]; filed as agonist): 50%
C[C@H](NC(=O)Cn1nc2ccccn2c1=O)c1ccc(OC(F)F)c(F)c1	1	1	> 80	50	–
C[C@H](NC(=O)Cn1nc2c(OC3CNC3)nccn2c1=O)c1ccc(Cl)c(F)c1	–	–	50	–	EC50 [1]: ≥ 100 nM; EC50 [2]: ≥ 100 nM; Emax [6]: 25%
C[C@H](NC(=O)Cn1nc2c(NC3COC3)nccn2c1=O)c1ccc(Cl)c(F)c1	1	1	> 80	50	–
CC(C(=O)N[C@@H](C)c1ccc(Cl)c(F)c1)n1nc2ccccn2c1=O (stereo in doubt; form 2) [listing 1 of 2 here]	–	–	> 80	–	Emax [6]: 25%; Emax ([5]; filed as agonist): 50%
C[C@H](NC(=O)Cn1nc2c(N3CCCCC3)nccn2c1=O)c1ccc(Cl)c(F)c1	–	–	> 80	> 80	EC50 [1]: < 1 nM; EC50 [2]: < 1 nM
CC(C(=O)N[C@@H](C)c1ccc(Cl)c(F)c1)n1nc2ccccn2c1=O (stereo in doubt; form 2) [listing 2 of 2 here]	1	1	–	–	EC50 ([3]; cho-k1): 10 nM
CC(C(=O)N[C@@H](C)c1ccc(Cl)c(F)c1)n1nc2cccnn2c1=O (stereo in doubt; I-6-1) [listing 2 of 2 here]	10	10	–	–	EC50 [3]: ≥ 100 nM
CC(C(=O)N[C@@H](C)c1ccc(Cl)c(F)c1)n1nc2ccccn2c1=O (stereo in doubt; form 1) [listing 2 of 2 here]	–	–	–	–	EC50 [1]: < 1 nM; EC50 [2]: < 1 nM; EC50 [3]: < 1 nM
CC1COCCN1c1cccc2nn(CC(=O)N[C@@H](C)c3ccc(Cl)c(F)c3)c(=O)n12 (stereo partly specified)	–	1	> 80	> 80	EC50 [1]: < 1 nM
C[C@H](NC(=O)Cn1nc2ccccn2c1=O)c1ccc(-c2ccccc2)cc1	10	–	–	–	Emax [4]: 25%; EC50 [3]: ≥ 100 nM; Emax [5]: < 25%
CC(C(=O)N[C@@H](C)c1ccc(Cl)c(F)c1)n1nc2ncccn2c1=O (stereo in doubt; form 2) [listing 2 of 2 here]	–	–	–	–	EC50 [2]: ≥ 100 nM; EC50 ([3]; cho-k1): 1 nM
C[C@H](NC(=O)Cn1nc2cccc(N3CCOCC3)n2c1=O)c1ccc(Cl)c(F)c1	–	1	> 80	> 80	EC50 [1]: < 1 nM

Continued, in another order:

EC50 ([1]; cho-k1) [nM]	EC50 ([2]; cho-k1) [nM]	Emax ([4]; filed as agonist) [%]	Emax ([6]; filed as agonist) [%]	SMILES	further results
–	–	> 80	–	C[C@H](NC(=O)Cn1nc2c(C(F)(F)F)ccnn2c1=O)c1ccc(Cl)c(F)c1	EC50 [1]: < 1 nM; EC50 ([3]; cho-k1): 1 nM; Emax ([5]; filed as agonist): 50%
–	–	> 80	50	C[C@H](NC(=O)Cn1nc2ccccn2c1=O)c1ccc(Cl)cc1	EC50 [1]: < 1 nM; EC50 [2]: < 1 nM
10	10	50	50	C[C@H](NC(=O)Cn1nc2cccnn2c1=O)c1ccc(C2CC2)cc1	–
–	1	50	–	C[C@H](NC(=O)Cn1nc2cccc(N3CC(O)C3)n2c1=O)c1ccc(OC(F)(F)F)cc1	EC50 [1]: < 1 nM; Emax [6]: 25%
–	–	> 80	> 80	Cc1nccn2c(=O)n(CC(=O)N[C@@H](C)c3ccc(Cl)c(F)c3)nc12	EC50 [1]: < 1 nM; EC50 [2]: < 1 nM
1	10	> 80	50	C[C@H](NC(=O)Cn1nc2ncccn2c1=O)c1ccc(Cl)c(Cl)c1	–
1	–	> 80	–	Cc1cn2c(=O)n(CC(=O)N[C@@H](C)c3ccc(OC(F)(F)F)cc3)nc2cn1	EC50 [2]: ≥ 100 nM; Emax [6]: 25%
1	1	> 80	50	Cc1ccc([C@H](C)NC(=O)Cn2nc3cnc(C)cn3c2=O)cc1	–
1	–	50	–	Cc1ccnc2nn(CC(=O)N[C@@H](C)c3ccc(OC(F)(F)F)cc3)c(=O)n12	EC50 [2]: ≥ 100 nM; Emax [6]: < 25%
1	1	> 80	50	COc1ccn2c(=O)n(CC(=O)N[C@@H](C)c3ccc(Cl)cc3)nc2n1	–
1	–	> 80	50	Cc1ccc([C@H](C)NC(=O)Cn2nc3ccc(Br)cn3c2=O)cc1	EC50 [2]: < 1 nM
10	–	> 80	–	Cc1ccc([C@H](C)NC(=O)Cn2nc3ncccn3c2=O)cc1	EC50 [2]: ≥ 100 nM; Emax [6]: 25%
